PubChem BioAssay AID274 (DTP/NCI, 2004)
Where “and” joins values, the source holds several entries; their conditions need not be identical. Equal values may be shown once. Inconclusive results and toxic doses are left out.

Tested on: BDF1 mice, Lewis lung carcinoma iv, survival T/C
Test: NCI In Vivo Anticancer Drug Screen. Data for tumor model Lewis Lung Carcinoma (intravenous) in B6D2F1 (BDF1) mice
Conditions: endpoint: median survival time, higher = longer survival
Method: The antitumor activity of compounds was measured in mice bearing transplantable tumors. Survival or tumor size were measured and the results are expressed as the measurement made in the treated group (T) divided by the measurement made in the vehicle treated control group (C). The tumor model used in this assay is Lewis Lung Carcinoma (intravenous) in B6D2F1 (BDF1) mice

[1] = dose: 2.0 mg/kg/injection, schedule: Q01DX009 (ip), vehicle: saline
[2] = dose: 4.0 mg/kg/injection, schedule: Q01DX009 (ip), vehicle: saline
[3] = dose: 8.0 mg/kg/injection, schedule: Q01DX009 (ip), vehicle: saline
[4] = dose: 12.5 mg/kg/injection, schedule: Q01DX009 (ip), vehicle: saline with Tween-80
[5] = dose: 25.0 mg/kg/injection, schedule: Q01DX009 (ip), vehicle: saline with Tween-80
[6] = dose: 50.0 mg/kg/injection, schedule: Q01DX009 (ip), vehicle: saline with Tween-80
[7] = dose: 100.0 mg/kg/injection, schedule: Q01DX009 (ip), vehicle: saline with Tween-80
[8] = dose: 200.0 mg/kg/injection, schedule: Q01DX009 (ip), vehicle: saline with Tween-80
[9] = dose: 400.0 mg/kg/injection, schedule: Q01DX009 (ip), vehicle: saline with Tween-80
[10] = dose: 4.0 mg/kg/injection, schedule: Q01DX005 (ip), vehicle: saline with Tween-80
[11] = dose: 0.25 mg/kg/injection, schedule: Q01DX009 (ip), vehicle: saline
[12] = dose: 0.5 mg/kg/injection, schedule: Q01DX009 (ip), vehicle: saline
[13] = dose: 1.0 mg/kg/injection, schedule: Q01DX009 (ip), vehicle: saline
[14] = dose: 25.0 mg/kg/injection, schedule: Q01DX009 (ip), vehicle: saline
[15] = dose: 50.0 mg/kg/injection, schedule: Q01DX009 (ip), vehicle: saline

For `S=P(N1CC1)(N1CC1)N1CC1`, the T/C (dose: 1.0 mg/kg/injection, schedule: Q01DX009 (ip), vehicle: saline with Tween-80) was 106 % of control and 110 % of control and 116 % of control, the T/C (dose: 2.0 mg/kg/injection, schedule: Q01DX009 (ip), vehicle: saline with Tween-80) was 113 % of control (2×) and 116 % of control and the T/C (dose: 4.0 mg/kg/injection, schedule: Q01DX009 (ip), vehicle: saline with Tween-80) was 118 % of control and 119 % of control and 123 % of control. The T/C (dose: 8.0 mg/kg/injection, schedule: Q01DX009 (ip), vehicle: saline with Tween-80) was 100 % of control and 110 % of control and the T/C (dose: 16.0 mg/kg/injection, schedule: Q01DX009 (ip), vehicle: saline with Tween-80) was 112 % of control.
With `O=c1[nH]cc(F)c(=O)[nH]1` the T/C [1] was 106 % of control, the T/C (dose: 2.5 mg/kg/injection, schedule: Q01DX009 (ip), vehicle: saline) was 108 % of control and the T/C [2] was 110 % of control. The T/C (dose: 5.0 mg/kg/injection, schedule: Q01DX009 (ip), vehicle: saline) was 116 % of control, the T/C (dose: 7.5 mg/kg/injection, schedule: Q04DX003 (ip), vehicle: saline) was 96 % of control (2×) and 110 % of control and the T/C [3] was 112 % of control. For the same molecule, the T/C (dose: 9.8 mg/kg/injection, schedule: Q01DX009 (ip), vehicle: saline) was 122 % of control, the T/C (dose: 10.0 mg/kg/injection, schedule: Q01DX009 (ip), vehicle: saline) was 104 % of control and 109 % of control and 122 % of control and the T/C (dose: 13.2 mg/kg/injection, schedule: Q04DX006 (ip), vehicle: saline) was 104 % of control. For the same molecule, the T/C (dose: 14.0 mg/kg/injection, schedule: Q01DX009 (ip), vehicle: saline) was 163 % of control, the T/C (dose: 14.0 mg/kg/injection, schedule: Q01DX022 (ip), vehicle: saline) was 193 % of control and the T/C (dose: 15.0 mg/kg/injection, schedule: Q04DX003 (ip), vehicle: saline) was 105 % of control and 110 % of control (2×). For the same molecule, the T/C (dose: 16.0 mg/kg/injection, schedule: Q01DX009 (ip), vehicle: saline) was 107 % of control, the T/C (dose: 28.6 mg/kg/injection, schedule: Q01DX009 (ip), vehicle: saline) was 109 % of control and the T/C (dose: 32.0 mg/kg/injection, schedule: Q01DX009 (ip), vehicle: saline) was 122 % of control. For the same molecule, the T/C (dose: 40.9 mg/kg/injection, schedule: Q01DX009 (ip), vehicle: saline) was 109 % of control and the T/C (dose: 60.0 mg/kg/injection, schedule: Q04DX003 (ip), vehicle: saline) was 150 % of control.
With `N#CCCSC(=S)C1CCCC1=N` (centres undefined) the T/C [4] was 105 % of control, the T/C [5] was 101 % of control and the T/C [6] was 106 % of control. For the same molecule, the T/C [7] was 93 % of control, the T/C [8] was 98 % of control and the T/C [9] was 106 % of control.
For `C[C@H](CCC(=O)O)[C@H]1CC[C@H]2[C@@H]3[C@H](O)C[C@@H]4C[C@H](O)CC[C@]4(C)[C@H]3C[C@H](O)[C@]12C` (tested in a mixture with another compound), the T/C [6] was 109 % of control, the T/C [7] was 108 % of control and the T/C [8] was 121 % of control.
For `CN1C(=O)C(=Cc2ccc(O)cc2)C(=O)N(C)C1=O`, the T/C [4] was 101 % of control, the T/C [5] was 105 % of control and the T/C [6] was 106 % of control. The T/C [7] was 99 % of control, the T/C [8] was 101 % of control and the T/C [9] was 96 % of control.
With `O=C1c2c(O)ccc(O)c2C(=O)c2c(NCCNCCO)ccc(NCCNCCO)c21` the T/C (dose: 1.0 mg/kg/injection, schedule: Q01DX005 (ip), vehicle: saline with Tween-80) was 276 % of control, the T/C (dose: 2.0 mg/kg/injection, schedule: Q01DX005 (ip), vehicle: saline with Tween-80) was 115 % of control and the T/C [10] was 116 % of control.
With `O[C@H](CN1CC1)[C@@H](O)CN1CC1` the T/C (dose: 0.13 mg/kg/injection, schedule: Q01DX009 (ip), vehicle: saline) was 111 % of control and the T/C [11] was 121 % of control.
In the case of `CN(C)CCCNc1c2ccccc2nc2cccc([N+](=O)[O-])c12`, the T/C (dose: 44.8 micrograms/kg/injection, schedule: Q04DX003 (ip), vehicle: saline) is reported as 92 % of control, the T/C (dose: 124.0 micrograms/kg/injection, schedule: Q04DX003 (ip), vehicle: saline) is reported as 92 % of control and the T/C (dose: 346.0 micrograms/kg/injection, schedule: Q04DX003 (ip), vehicle: saline) is reported as 86 % of control.
With `N[C@@H](Cc1ccc(N(CCCl)CCCl)cc1)C(=O)O` the T/C [11] was 92 % of control, the T/C [12] was 99 % of control and 102 % of control and 103 % of control and the T/C [13] was 104 % of control and 105 % of control and 109 % of control. For the same molecule, the T/C (dose: 1.95 mg/kg/injection, schedule: Q04DX003 (ip), vehicle: saline) was 92 % of control, the T/C [1] was 96 % of control and 110 % of control and 117 % of control and the T/C (dose: 3.24 mg/kg/injection, schedule: Q04DX003 (ip), vehicle: saline) was 98 % of control. For the same molecule, the T/C (dose: 3.4 mg/kg/injection, schedule: Q04DX003 (ip), vehicle: saline) was 100 % of control, the T/C [2] was 112 % of control and 114 % of control and the T/C (dose: 4.9 mg/kg/injection, schedule: Q04DX003 (ip), vehicle: saline) was 106 % of control. For the same molecule, the T/C (dose: 5.4 mg/kg/injection, schedule: Q04DX003 (ip), vehicle: saline) was 100 % of control, the T/C [3] was 113 % of control and the T/C (dose: 9.0 mg/kg/injection, schedule: Q04DX003 (ip), vehicle: saline) was 154 % of control. For the same molecule, the T/C (dose: 14.3 mg/kg/injection, schedule: Q04DX003 (ip), vehicle: saline) was 122 % of control.
In the case of `c1cn[nH]c1`, the T/C [14] is reported as 121 % of control and the T/C [15] is reported as 110 % of control.
For `O=C(O)c1ccc(C(=O)O)c(C(=O)O)c1.[NH-]C1CCCCC1[NH-].[Pt+2]`, the T/C (dose: 0.39 mg/kg/injection, schedule: Q01DX009 (ip), vehicle: sodium bicarbonate) was 90 % of control, the T/C (dose: 0.78 mg/kg/injection, schedule: Q01DX009 (ip), vehicle: sodium bicarbonate) was 100 % of control and the T/C (dose: 1.56 mg/kg/injection, schedule: Q01DX009 (ip), vehicle: sodium bicarbonate) was 112 % of control. The T/C (dose: 3.12 mg/kg/injection, schedule: Q01DX009 (ip), vehicle: sodium bicarbonate) was 122 % of control.
For `C1CCC2[N-]CC3CCCCC3[N-]CC3CCCCC3[N-]CC3CCCCC3[N-]CC2C1.[Cu]` (centres undefined), the T/C (dose: 0.78 mg/kg/injection, schedule: Q01DX009 (ip), vehicle: Klucel (hydroxypropylcellulose) (HPC)) was 106 % of control, the T/C (dose: 3.13 mg/kg/injection, schedule: Q01DX009 (ip), vehicle: Klucel (hydroxypropylcellulose) (HPC)) was 112 % of control and the T/C (dose: 6.25 mg/kg/injection, schedule: Q01DX009 (ip), vehicle: Klucel (hydroxypropylcellulose) (HPC)) was 113 % of control.
In the case of `Cc1ccc(Cl)c2ccccc12`, the T/C [6] is reported as 98 % of control, the T/C [7] is reported as 98 % of control and the T/C [8] is reported as 107 % of control.
With `Cc1cc(N(CC(C)Br)CC(C)Br)ccc1N=Nc1ccccc1C(=O)O` (centres undefined) the T/C (dose: 6.25 mg/kg/injection, schedule: Q01DX009 (ip), vehicle: saline with Tween-80) was 117 % of control and the T/C [4] was 114 % of control.
With `CC1=C(/C=C/C(C)=C/C=C/C(C)=C/CO)C(C)(C)CCC1` the T/C [10] was 95 % of control, the T/C (dose: 8.0 mg/kg/injection, schedule: Q01DX005 (ip), vehicle: saline with Tween-80) was 95 % of control and the T/C (dose: 16.0 mg/kg/injection, schedule: Q01DX005 (ip), vehicle: saline with Tween-80) was 95 % of control. The T/C (dose: 32.0 mg/kg/injection, schedule: Q01DX005 (ip), vehicle: saline with Tween-80) was 102 % of control, the T/C (dose: 64.0 mg/kg/injection, schedule: Q01DX005 (ip), vehicle: saline with Tween-80) was 102 % of control and the T/C (dose: 128.0 mg/kg/injection, schedule: Q01DX005 (ip), vehicle: saline with Tween-80) was 98 % of control.
In the case of `CC(=O)O[C@@H]1C(=O)C=C(C)[C@@H]2[C@@H](OC(=O)C=C(C)C)[C@H]3OC(=O)C[C@H]4[C@@H](C)[C@@H](O)[C@]5(O)OC[C@]34[C@H]5[C@@]12C`, the T/C (dose: 0.12 mg/kg/injection, schedule: Q01DX009 (ip), vehicle: saline) is reported as 107 % of control, the T/C [11] is reported as 106 % of control and the T/C [12] is reported as 102 % of control. The T/C [13] was 107 % of control.
With `O=C1NC(O)CCN1C1OC(CO)C(O)C1O` (centres undefined) the T/C (dose: 12.5 mg/kg/injection, schedule: Q01DX009 (ip), vehicle: saline) was 110 % of control, the T/C [14] was 100 % of control and the T/C [15] was 118 % of control. The T/C (dose: 100.0 mg/kg/injection, schedule: Q01DX009 (ip), vehicle: saline) was 118 % of control, the T/C (dose: 200.0 mg/kg/injection, schedule: Q01DX009 (ip), vehicle: saline) was 98 % of control and the T/C (dose: 400.0 mg/kg/injection, schedule: Q01DX009 (ip), vehicle: saline) was 102 % of control. For the same molecule, the T/C (dose: 800.0 mg/kg/injection, schedule: Q01DX009 (ip), vehicle: saline) was 101 % of control.
With `OC(C1CO1)C(O)C1CO1` (centres undefined) the T/C [11] was 93 % of control, the T/C [12] was 94 % of control and 107 % of control and the T/C [13] was 100 % of control and 113 % of control. The T/C [1] was 95 % of control and the T/C [2] was 121 % of control.
